A short description of data set [1]: In vitro testing of iontophoretic delivery of terbinafine forms and hydrogel formulations to the nail bed. The text has this:
The acetic acid terbinafine salt may be used in the preparation of a medication for the treatment of any suitable disorder, such as the treatment of a fungal infection. In one aspect, the acetic acid terbinafine salt may be for treatment of onychomycosis.
The terbinafine acetate and/or mixture of terbinafine and acetic acid may be added to a hydrogel.

The subject of another data set is dermatophytes. Conditions: cited from earlier work.
For data set [2] the following is noted: cited from earlier work.
The conditions of data set [3]: cited from earlier work. This is another data set of the same source.

Structures can show the parent of a compound that is named as a salt. Where two headings read alike, the source gives them in different places.

For `CN(C/C=C/C#CC(C)(C)C)Cc1cccc2ccccc12` [terbinafine HCl, terbinafine hydrochloride], the “delivery of terbinafine to the nail bed” value in data set [1] is given as “about 45 μg/cm^2”. Moreover, the “minimum inhibitory concentration (MIC) for dermatophytes” value in the data set on dermatophytes is listed as “about 0.0015 μg/ml”.

In the case of `CN(C/C=C/C#CC(C)(C)C)Cc1cccc2ccccc12` [terbinafine base, N,6,6-trimethyl-N-(naphthalen-1-ylmethyl) hept-2-en-4-yn-1-amine], in data set [1], the “delivery of terbinafine to the nail bed” value was “about 10 μg/cm^2”. Further, in data set [2] (listed as Terbinafine base), the water solubility result is “significantly less water soluble”.

Take `CN(C/C=C/C#CC(C)(C)C)Cc1cccc2ccccc12` [terbinafine, N,6,6-trimethyl-N-(naphthalen-1-ylmethyl) hept-2-en-4-yn-1-amine]: the pKa of terbinafine result in data set [3] was “about 7.1”. Moreover, in data set [2], the “solubility in methanol and ethanol” value is reported as “very soluble”; the water solubility entry is on record as “low”.

Consider terbinafine acetate, for which, in data set [1] (in vitro, iontophoretic delivery, similar conditions), the “delivery of terbinafine to the nail bed” value was “about 150 μg/cm^2”.

(Values after patent US20100168233A1, “TERBINAFINE FORMULATION” (POWER PAPER LTD, priority 2007, published 2010).)
